Data set [1] concerns pathogenic P. yoelii sporozoites. Put plainly: Protection of BALB/c mice against pathogenic P. yoelii sporozoite challenge after a single IV dose of irr PySPZ with or without 7DW8-5 IP. It counts as in vivo. The protocol:
To determine if the adjuvant 7DW8-5 could decrease the number of doses of irr PySPZ required to confer protection, a suboptimal dosing regimen was performed. irr PySPZ (17NXL) were dissected from the salivary glands of A. stephensi mosquitoes and injected intravenously (IV) into BALB/c mice as a single dose of either of 5×10^4 or 1×10^4 sporozoites. Two μg of 7DW8-5 was concurrently administered intraperitoneally (IP) in some mice. Fourteen days later, mice were challenged with 100 non-irradiated pathogenic P. yoelii sporozoites. Protection was assessed by Giemsa-stained blood smears and was defined as the complete absence of parasitemia 7 and 14 days post infection.
A second experiment was performed to confirm the results shown in Example 1. […] Again, adjuvant in the absence of antigen had no effect.
Using the single dose methodology of Example 1 with radiation attenuated Py sporozoites that have been purified using the purification procedure disclosed in Sim et al. (U.S. Pat. No. 8,043,625, incorporated in its entirety herein by reference) a third experiment was performed. Using 1×10^4 purified sporozoites administered IV in a single dose, 3 out of 10 mice were protected, whereas 7 of 10 mice were protected when the adjuvant was concurrently administered IP.
To determine the optimal single dose of attenuated sporozoites (in conjunction with 7DW8-5 concurrently administered distally IP) that confers protection by the IV route, mice were injected IV with 0, 2500, 5000, 10,000 and 20,000 sporozoites. Two μg of 7DW8-5 were injected IP.

For data set [2] the test system is unchanged. Put plainly: Protection of BALB/c mice after intradermal immunization with irr PySPZ mixed with 7DW8-5 at base of tail. It counts as in vivo. The protocol: To determine whether protective immunogenicity of attenuated sporozoites is maintained or enhanced in the presence of 7DW8-5, mice were immunized by intradermal (ID) injection alone, with 2 doses at 2-week intervals of 15,000, 10,000, 5,000 and 2,500 sporozoites and unlike Examples 1-5, 1 μg 7DW8-5 was mixed as a composition with sporozoites and the composition of adjuvant and sporozoites was delivered ID at the base of the tail. With 2 doses of 15,000 sporozoites in the presence of adjuvant 100% of the mice were protected, and at lower doses of sporozoites 60-80% of the mice were protected. In the absence of adjuvant, only 40% of mice receiving 2 doses of 15,000 sporozoites were protected.
Protection conferred by a single dose of a composition of 1 μg 7DW8-5 adjuvant and varying amounts of sporozoites delivered ID was measured. For this 15,000 and 30,000 sporozoites were administered to mice ID as described above. These doses were partially protective at 60% and 40% respectively.
The next step in development was to assess purified irr PySPZ BALB/c/mice were immunized with irr PySPZ purified as described, in the presence or absence of 7DW8-5 adjuvant.

For data set [3] the test system is unchanged. The conditions noted are these: versus α-GalCer, cited from earlier work.
Data set [4] concerns iNKT cells. The note with it: mouse; cited from earlier work.
Data set [5] has as its system iNKT cells. The conditions noted are these: human; cited from earlier work.
The subject of data set [6] is IFN-γ-secreting CS-specific CD8+ cells. The note with it: irradiated sporozoites SC with α-GalCer by the same route vs without; cited from earlier work.
For data set [7] the following is noted: pre-loaded autologous PBMCs or direct injection; cited from earlier work.
Data set [8] has as its target CD1d (Homo sapiens, UniProt P15813). The note with it: cited from earlier work.
Where [9] appears, read: summary of Examples 1-3, one dose irr PySPZ IV, 7DW8-5 IP where given.

Several values for one entry are separate records, joined by “and”; a condition that tells them apart may be missing. Equal values may be shown once. Read-outs that look alike come from different tables or passages of the source.

Sequence of CD1d (P15813 20-335, species assumed): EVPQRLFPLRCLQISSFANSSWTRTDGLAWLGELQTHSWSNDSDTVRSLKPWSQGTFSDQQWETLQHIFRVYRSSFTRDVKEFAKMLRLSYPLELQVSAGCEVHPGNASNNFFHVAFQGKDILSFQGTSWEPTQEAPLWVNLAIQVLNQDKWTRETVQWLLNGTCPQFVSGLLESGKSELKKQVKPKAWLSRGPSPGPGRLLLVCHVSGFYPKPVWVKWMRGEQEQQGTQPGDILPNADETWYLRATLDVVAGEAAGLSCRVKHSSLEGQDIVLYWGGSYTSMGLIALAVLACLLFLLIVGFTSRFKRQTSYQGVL
Sequence of CD1d (P61769 21-119 partner, species assumed): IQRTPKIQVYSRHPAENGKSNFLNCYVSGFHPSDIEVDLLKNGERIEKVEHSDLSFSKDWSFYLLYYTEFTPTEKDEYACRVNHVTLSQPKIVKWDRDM

`CCCCCCCCCCCCCC[C@@H](O)[C@@H](O)[C@H](COC1OC(CO)C(O)C(O)C1O)NC(=O)CCCCCCCCCCc1ccc(F)cc1` (stereo partly shown) [7DW8-5]: the “# protected/# challenged” value is “no protection and 0/5” in data set [1] (Example 1, 2 μg 7DW8-5 IP alone, no sporozoites); “no effect and 0/5” in data set [1] (Example 2, 2 μg 7DW8-5 IP alone, no sporozoites); 0/5 in data set [1] (Example 3, 2 μg 7DW8-5 IP alone, no sporozoites); 0/5 in data set [1] (Example 5, 0 sporozoites, 2 μg 7DW8-5 IP); 0/5 in data set [2] (Example 6, 0 sporozoites, 1 μg 7DW8-5 per mouse ID). Further, the “First Challenge # protected/# re-challenged” value in data set [1] (Example 4 table, first challenge, 2 μg 7DW8-5 IP alone) is 0/5. In data set [1] (setting [9]), this molecule returned a percent protected of 0%. Also, the protected/challenged in data set [1] (setting [9]) is 0/15. For the same molecule, the protection entry in data set [2] (Example 8, adjuvant alone) is given as “No protection”. Moreover, the malaria-specific humoral response entry in data set [3] (co-administered IM with adenovirus vaccine) is on record as “equally if not slightly stronger than α-GalCer”. For the same molecule, in data set [3] (co-administered IM with suboptimal dose of adenovirus vaccine), the “malaria-specific CD8+ T cell response” value was “significantly more than α-GalCer”. The “adjuvant effect in enhancing protective efficacy” value in data set [3] (single immunizing dose of adenovirus recombinant vaccine) was “significantly stronger adjuvant effect than α-GalCer”. The “ability to elicit cytokine production from iNKT cells” value in data set [4] and in data set [5] was “superior ability” throughout.
`CCCCCCCCCCCCCCCCCCCCCCCCCC(=O)N[C@@H](CO[C@H]1O[C@H](CO)[C@H](O)[C@H](O)[C@H]1O)[C@H](O)[C@H](O)CCCCCCCCCCCCCC` [α-GalCer, α-galactosylceramide]: the “increase in number of IFN-γ-secreting CS-specific CD8+ cells” value in data set [6] was “seven fold”. For the same molecule, the safety and tolerability entry in data set [7] is “safe and well tolerated”. Besides, the “affinity for CD1d” value in data set [8] was “high affinity”. Also, the “activation of iNKT cells” value in data set [4] and in data set [5] was “potent activator” each time.
